Experimental data taken from US20250367209A1 (SOUTHERN RESEARCH INSTITUTE, priority 2022, published 2025).
Entries after “also recorded” stand apart in the source; their conditions may differ.

Legend:
[1] = Metabolic stability in mouse liver microsomes; format: in vitro ADME; settings: mouse, liver microsomes, Table 3, read-out: ADME t1/2 (min): MLMt1/2
[2] = Solubility; format: physicochemical; settings: Table 3
[3] = Metabolic stability in human liver microsomes; format: in vitro ADME; settings: Table 3, read-out: ADME t1/2 (min): HLMt1/2
Text: (§1) A computational analysis of the top five hits was then completed to assess the physical attributes of the compounds emerging from the HTS. The target profile for drug-like properties included evaluation of molecular weight (MW), total polar surface area (PSA, the surface sum of all polar atoms on the molecule), solubility, metabolic stability, and partition coefficient (LogD). In general, MW<[…] and PSA <70 Å^2 were targeted, which generally allows for blood-brain barrier (BBB) permeability. Compounds with PSA >100 A^2 are generally poor at permeating cell membranes. Solubility was targeted at >10 μM at pH 7.4 and 40-60% of compound remaining after 60 minutes of incubation in mouse or human liver microsomes (an indicator of compound stability after first-pass metabolism). LogD is the log of the ratio of concentrations of a compound in two immiscible solvents at equilibrium. Values ranging from 2-4 were targeted, typical for CNS drugs. Based on these criteria, compound no. 55 was selected as the top hit for optimization. Compound no.

[4] = Partition coefficient (LogD); format: physicochemical; settings: Table 3; read-out: ADME LogD
Text: as §1

[5] = molecular target: Tau-FynSH3 interaction (Homo sapiens (Human), UniProt P10636); assay: Tau-FynSH3 AlphaScreen; format: binding; settings: Table 3; read-out: Alpha screen IC50
Chain of Tau-FynSH3 interaction (P10636 other isoform, or with tags, fused parts or gaps): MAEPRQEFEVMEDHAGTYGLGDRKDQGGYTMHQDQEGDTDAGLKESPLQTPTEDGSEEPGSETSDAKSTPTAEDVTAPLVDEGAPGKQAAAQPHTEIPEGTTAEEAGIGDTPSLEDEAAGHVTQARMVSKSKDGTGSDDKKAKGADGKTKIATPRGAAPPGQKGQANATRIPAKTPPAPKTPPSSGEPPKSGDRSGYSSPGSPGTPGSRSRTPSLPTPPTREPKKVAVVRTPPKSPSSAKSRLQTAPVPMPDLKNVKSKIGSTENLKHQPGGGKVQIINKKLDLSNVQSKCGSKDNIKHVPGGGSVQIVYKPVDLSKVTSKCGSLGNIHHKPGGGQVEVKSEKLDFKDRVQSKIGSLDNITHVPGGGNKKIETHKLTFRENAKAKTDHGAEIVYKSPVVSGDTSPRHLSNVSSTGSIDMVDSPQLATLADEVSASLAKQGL
Text: Human Fyn-SH3 domain with GST-tag at the N-terminus and a Strep-tag II ([…]) at the C-terminus (GST-Fyn-SH3-Strep) was cloned into pPR-IBA1 vector (IBA Lifesciences) (Cochran, et al. (2014) J. Biomol. Screen. 19, 1338-1349). Codon-optimized human 4R2N Tau for E. coli expression with a Strep-tag II at the C-terminus (His-Tau-Strep) was cloned into pET-28a(+) vector (Novagen). The constructs were transformed into E. coli BL-21(DE3) competent cells (Novagen). For GST-Fyn-SH3-Strep purification, a single colony was inoculated in Luria-Bertani (LB) broth at 37° C. overnight. 10 mL cell culture was added into 500 mL LB medium and cultured at 37° C. 0.5 mM Isopropyl β-D-1-thiogalactopyranoside (IPTG) was added into the culture when OD600 reached 0.7. Cells were further cultured at 25° C. for 4 hours and harvested. Cell pellet was resuspended in lysis buffer (20 mM Tris pH 7.9, 300 mM NaCl, 1 mM TCEP) with 1 tablet of EDTA-free protease inhibitors (ThermoFisher) and 1 mg/ml lysozyme. Cells were disrupted by sonication and debris was removed by centrifugation at 9500 rpm for 1 hour. Supernatant was loaded onto a glutathione-sepharose column (Cytiva). The column was washed in lysis buffer and protein eluted in lysis buffer containing 25 mM reduced glutathione. For His-Tau-Strep protein purification, cells were inoculated in LB broth medium and cultured at 37° C. overnight. A 10 mL overnight culture was added to 500 mL of auto-induction medium (Studier, F. W. (2005) Protein Expr Purif 41, 207-34) and cells were cultured at 37° C. for about 5 hours. The temperature was lowered to 18° C., and cells were cultured overnight. Cells were harvested and resuspended in lysis buffer with 20 mM imidazole, protease inhibitors, and lysozyme. Cells were disrupted by sonication and cell pellets were spun down at 9500 rpm for 1 hour. Supernatant was loaded onto Ni-NTA column (Cytiva) and the column was washed in lysis buffer with 20 mM imidazole. His-Tau-Strep protein was eluted in lysis buffer containing 400 mM imidazole. Both eluted GST-Fyn-SH3-Strep and His-Tau-Strep protein solutions were passed through G-25 desalting column (Cytiva) with lysis buffer and loaded onto high capacity Strep-Tactin column (IBA Lifesciences). The columns were washed in Buffer W (IBA Life sciences) and proteins were eluted in Buffer E (IBA life sciences). The eluted proteins were passed through G-25 desalting column again. Both GST-Fyn-Strep and His-Tau-Strep proteins were concentrated and diluted 1:1 in ethylene glycol as a cryoprotectant for storage at −80° C.
AlphaScreen was conducted with 10 µg/mL of glutathione donor beads (PerkinElmer, Waltham, MA) and nickel chelate acceptor beads (PerkinElmer) in 10 mM Bis-Tris (pH 7.0), 1 mM TCEP, 0.02% casein, and 0.1% Tween-20. Compounds were plated first followed by addition of one the proteins at 600 nM and incubation for 30 min. The second protein was added and incubated for 30 mn, then the beads were added simultaneously and the final mixture was incubated for 2 hours. Experiments were conducted in 384-well plates (6007290; PerkinElmer) and results were read on a PHERAstar plate reader (BMG Labtech, Cary, NC).
˜50,000 compounds from the Enamine and Southern Research libraries were screened to identify Tau-FynSH3 interaction inhibitors using an AlphaScreen assay (Cochran, et al. (2014) J. Biomol. Screen. 19, 1338-1349). Compounds that were >3 standard deviations above mean inhibition were selected, yielding 1,852 hits (FIG. 1A). […]. These 39 compounds were tested in a live-cell BRET assay to measure Tau-Fyn interaction in cells. […]. Screen. 19, 1338-1349).

[6] = system: primary rat neurons; assay: Modified MTT assay of Aβ toxicity in primary neurons; format: cell-based; settings: Table 3; Aβ toxicity in primary neurons
Text: Primary neuron cultures: All animal procedures were approved by the Institutional Animal Care and Use Committee at the University of Alabama at Birmingham (UAB). As before (Rush, et al. (2020) Neurobiol Dis 134, 104668; Voskobiynyk, et al. (2020) eLife 9, e57354), primary rat neurons were isolated from timed-pregnant Sprague-Dawley rats. Briefly, dams were euthanized with isoflurane anesthesia asphyxiation, and hippocampal tissue was isolated from E19 embryos in Hibernate E, then digested in papain for 10 minutes at 37° C. Neurons were triturated into a single cell suspension in Neurobasal supplemented with B-27, L-Glutamine, and 10% FBS, then plated in 96-well plates coated with PDL and laminin at 30,000 neurons per well in 200 uL medium or in 24-well coated plates with or without coverslips at 50,000 per well. Cultures were maintained at 37° C. with 5% CO2. Twenty-four hours after plating (DIV1), two 50% media changes with Neurobasal plus B-27 and L-Glutamine without FBS, and 5 μM cytosine β-D-arabinofuranoside was added to prevent glial proliferation. 50% media changes were performed at DIV7 and DIV14 with serum-free supplemented Neurobasal and experiments were started at DIV19.
Aβ oligomer preparation: As before (Rush, et al. (2020) Neurobiol Dis 134, 104668), lyophilized recombinant Aβ42 was dissolved in HFIP, dried overnight, then stored at −20° C. until oligomerization. To oligomerize, Aβ was dissolved in DMSO to 1 mM, then diluted to 100 µM in PBS, then sonicated and left on ice for 24 hours. Immediately prior to use, Aβ was centrifuged at 4° C. for 10 minutes at 14,000×g. Vehicle was prepared as well in identical fashion except lacking the Aβ peptide.
Aβ toxicity assays: The modified MTT and MAP2 assays were adapted from a recent study (Rush, et al. (2020) Neurobiol Dis 134, 104668). Briefly, at DIV19, media on the neurons was reduced to […], then compound was added to final concentration of 0 μM, 0.3 μM, 3 μM, or 15 μM with even amounts of DMSO. After 90-minute pretreatment with compound, 2.5 μM Aβ was added.
The modified MTT assay was performed 24 hours after Aβ application. 100 μM MTT was applied to neurons and incubated at 37° C. for one hour. Media was removed, then replaced with 15 μL 1.6% Tween20 in PBS and incubated on a shaker at 100 rpm for 5 minutes. The Tween was then removed and transferred to a 384-well clear-bottom plate and replaced with 15 μL isopropanol. Plates were again agitated for 5 minutes at RT, then isopropanol was transferred to the 384-well plate. Absorbance was then read at 590 nm on a plate reader, with 660 nm used as a reference. The ratio of Tween soluble MTT to isopropanol soluble (Tween-insoluble) MTT was calculated for each sample, then normalized to the vehicle group average.

[7] = molecular target: Tau-Fyn interaction (Homo sapiens (Human), UniProt P10636); assay: Tau-Fyn PLA screening in HEK-293 cells; format: cell-based; settings: Table 3; Tau-Fyn PLA
Chain of Tau-Fyn interaction (P10636 other isoform, or with tags, fused parts or gaps): as above
Experimental: Tau-Fyn PLA screening in HEK-293 cells: For Tau-Fyn PLA in HEK-293 cells, we used the same plasmids as before (Rush, et al. (2020) Neurobiol Dis 134, 104668): human 4R2N Tau with an N-terminal mKate2 tag in a pcDNA3.1 vector and human Fyn with an N-terminal Myc tag in a pCMV-Sport6 vector grown in Stellar E. coli. HEK-293 cells were plated on coverslips coated with PDL and laminin in a 24-well plate in DMEM supplemented with 10% FBS and 1% PenStrep. Cells were transfected with 125 ng of Tau-mKate2 and Fyn plasmids with 1.5 μL Fugene in plain DMEM. After 24 hours, compound was applied at 15 μM. Twenty-four hours after application, cells were fixed. PLA protocol was the same as above except for different primary antibodies (Tau5 1:500, Fyn3 1:250). After image acquisition, PLA density was calculated as PLA puncta (as above) divided by cell area to account for differences in confluency. Cell area was defined with ImageJ as % Area after theresholding Tau-mKate2 fluorescence because it filled the cells evenly. Puncta/cell area was then normalized to vehicle-treated slides from that experiment.

[8] = molecular target: 97 kinases; assay: Eurofins DiscoverX ScanEDGE kinase panel; format: biochemical; settings: compound no. 69 at 3 μM; saracatinib stock 30 μM = 1000× testing concentration; activity = <35% of control
Text: 69 and compound no. […] Since Fyn was not included in that panel, a custom panel was completed for Fyn kinase activity.

[9] = Phase IIa, van Dyck et al. 2019; cited from earlier work
[10] = system: Sam68(PxxP)-FynSH3 interaction; settings: Oneyama et al. 2002; cited from earlier work

Molecule | half-life [1] [min] | ADME Sol (μM) [2] | half-life [3] [min] | logD [4] | IC50 [5] [µM] | MTT [6] | PLA [7] | kinase inhibition, panel of 97 kinases [8] | clinical benefit in AD [9] | Sam68(PxxP)-FynSH3 interaction [10]
O=C(CCN1C(=O)CSc2cc(Cl)ccc21)Nc1nnc(-c2ccccn2)[nH]1 [compound 8, 3-(7-CHLORO-3-OXO-2H-BENZO[B][1,4]THIAZIN-4(3H)-YL)-N-(5-(PYRIDIN-2-YL)-4H-1,2,4-TRIAZOL-3-YL)PROPANAMIDE] | 18 | Sol = 24 μM | 62 | 2.3 | 2.72 | Active |  |  |  | 
O=C(CN1C(=O)CCSc2ccccc21)Nc1nnc(-c2ccccn2)[nH]1 [compound 18, 2-(4-OXO-3,4-DIHYDROBENZO[B][1,4]THIAZEPIN-5(21)-YL)-N-(5-(PYRIDIN-2-YL)-4H-1,2,4-TRIAZOL-3-YL)ACETAMIDE] | 40 | Sol = 59 μM | 152 | 1.3 | 3.53 |  |  |  |  | 
CC1(C)Sc2ccccc2N(CC(=O)Nc2nnc(-c3ccccn3)[nH]2)C1=O [compound 19] | 8 | Sol = 20 μM | 28 | 1.3 | 1.5 |  |  |  |  | 
COc1ccc2c(c1)SCC(=O)N2CC(=O)Nc1nnc(-c2ccccn2)[nH]1 [compound 21, 2-(7-METHOXY-3-OXO-2H-BENZO[B][1,4]THIAZIN-4(3H)-YL)-N-(5-(PYRIDIN-2-YL)-4H-1,2,4-TRIAZOL-3-YL)ACETAMIDE] | 53 | Sol = 46 μM | 175 | 1.7 | 1.03 |  |  |  |  | 
COc1ccc2c(c1)N(CC(=O)Nc1nnc(-c3ccccn3)[nH]1)C(=O)CS2 [compound 22, 2-(6-METHOXY-3-OXO-2H-BENZO[B][1,4]THIAZIN-4(3H)-YL)-N-(5-(PYRIDIN-2-YL)-4H-1,2,4-TRIAZOL-3-YL)ACETAMIDE] | 56 | Sol = 80 μM | 150 | 1.8 |  | Active | Active |  |  | 
O=C(Cn1c(=O)sc2ccccc21)Nc1nnc(-c2ccccn2)[nH]1 [compound 26] | 82 | Sol = 22 μM | > 300 | 1.5 | 1.01 |  |  |  |  | 
CN1CCN(CCOc2cc(OC3CCOCC3)c3c(Nc4c(Cl)ccc5c4OCO5)ncnc3c2)CC1 [saracatinib, reference compound] |  |  |  |  |  |  |  | inhibited several Src family kinases; also recorded: inhibits Src, Fyn, Abl, and EGFR kinase activity | showed no clinical benefit in AD at a tolerable dose | 
UCS15A |  |  |  |  |  |  |  |  |  | inhibits Sam68(PxxP)-FynSH3 interaction
